According to EP0307553B1, “Modified splenopentines, their process of preparation and their use” (priority 1987, dated 1989):

Tests used:
[1] = test system: Monocyten bzw. Lymphocytensubpopulationen; experiment: Cytofluorimetric quantification of monocytes and lymphocyte subpopulations in a patient with secondary immunodeficiency; format: in vivo, Patientin; conditions: for DR^+-Monocyten (Gpt/l): before treatment 0,02, normal 0 -0,6; for CD 4 (Gpt/l): before treatment 0,03, normal 0,6 - 1,3; for CD 3 (Gpt/l): before treatment 0,04, normal 1,0 - 2,0; for Lymphocyten (Gpt/l): before treatment 0,28, normal 1,5 - 3,5; for CD 4/ CD 8: before treatment 0,58, normal 1,5 - 3,0; for DR^+-Monocyten (%): before treatment 16, normal 65 - 90
NMRI-Mäuse [2] = experiment: Antigen-specific IgM response against sheep erythrocytes in normal mice (Jerne plaque test, Fig. 1); format: in vivo; conditions: 3x at 24 h intervals, 0,5 mg/kg, independent of route of application
Text: (§1) Der Einfluß von DAc-SP5 und immunsuppressiv wirkenden Verbindungen auf die Antigen-spezifische IgM-Antwort bei Mäusen wurde untersucht. Die erhaltenen Ergebnisse sind in den Fig.1 und 2 dargestellt.
Tiere: männliche NMRI-Mäuse (Koloniezucht) im Alter von 2-2,5 Monaten. Methodik des Jerne-Plaquetests entsprechend R. Eckert und G. Pasternak, Acta biol. med. germ. 31: 127-137 (1973), n= 16 (NaCl-Kontrolle), n= 8 (DAc-SP5-Versuche).

[3] = test system: Knochenmark-stammzellen von C57 Bl-Mäusen; experiment: Colony formation test: mouse bone marrow stem cells co-cultured with human leukocytes in agar; format: cell-based; conditions: without DAc-SP5 = 100 %
männlichen Balb/c-Mäusen = experiment: Chronic alcohol intoxication: parameters of the immune system; format: in vivo, Mäuse; conditions: 5x daily before test, n=40
[4] = test system: HIV-infizierten Patienten; experiment: Therapy of HIV-infected patients
Coxsackievirus B4 = experiment: Histologically confirmed pancreatitis after Coxsackievirus infection; format: in vivo, Balb/c-Mäuse
[5] = Histopathological lung changes after infection, hamster; format: in vivo, syrischen Hamster; conditions: Hamster (TCID₅₀ = 2 x 10^3,5)
NMRI-Mäuse [6] = experiment: Chemically induced suppression of the humoral immune response (cyclophosphamide, dexamethasone; Fig. 2); format: in vivo
Text: as §1
DAc-SP5 rekonstituiert bereits durch wenige aufeinanderfolgende Applikationen die chemisch induzierts Suppression der humoralen Immunantwort.

[7] = Histopathological lung changes after infection, mouse; format: in vivo, Maus (Balb/c); conditions: Maus (TCID = 10^3,5)
Milzzellen/Ratte = experiment: Radioligand binding study, rat spleen cells
[8] = 15 % Ethanol over 1,5 months + 0,1 mg DAc-SP5 i.p.
[9] = no Ethanol, 0,1 mg DAc-SP5 i.p.
[10] = HIV-infected patients (Tab. 6.1.)
[11] = therapy before infection: 0,5 mg/kg s.c. 3 x per week during 2 weeks before infection
[12] = therapy during infection: 0,5 mg/kg s.c. daily over 5 days from day of infection

(N^α-Acetyl-arginyl)(N^ε-acetyl-lysyl)glutamylvalyltyrosin [DAc-SP5]
DR^+-Monocyten (Gpt/l) ([1]; 2 weeks of therapy): 0,08 Gpt/l | CD 4 (Gpt/l) ([1]; 2 weeks of therapy): 0,29 Gpt/l | CD 3 (Gpt/l) ([1]; 2 weeks of therapy): 0,39 Gpt/l | Lymphocyten (Gpt/l) ([1]; 2 weeks of therapy): 0,84 Gpt/l | CD 4/ CD 8 ([1]; 2 weeks of therapy): 2,3 | DR^+-Monocyten (%) ([1]; 2 weeks of therapy): 22% | DR^+-Monocyten (Gpt/l) ([1]; 3 weeks of therapy): 0,26 Gpt/l | CD 4 (Gpt/l) ([1]; 3 weeks of therapy): 0,34 Gpt/l | CD 3 (Gpt/l) ([1]; 3 weeks of therapy): 0,55 Gpt/l | Lymphocyten (Gpt/l) ([1]; 3 weeks of therapy): 0,74 Gpt/l | CD 4/ CD 8 ([1]; 3 weeks of therapy): 2,2 | DR^+-Monocyten (%) ([1]; 3 weeks of therapy): 62% | DR^+-Monocyten (Gpt/l) ([1]; 4 weeks of therapy): 0,60 Gpt/l | CD 4 (Gpt/l) ([1]; 4 weeks of therapy): 0,38 Gpt/l | CD 3 (Gpt/l) ([1]; 4 weeks of therapy): 0,67 Gpt/l | Lymphocyten (Gpt/l) ([1]; 4 weeks of therapy): 0,83 Gpt/l | CD 4/ CD 8 ([1]; 4 weeks of therapy): 2,4 | DR^+-Monocyten (%) ([1]; 4 weeks of therapy): 72% | Stärke und Kinetik der IgM-Antwort von Mäusen gegen Schafserythrocyten (NMRI-Mäuse [2]): keinen siknifikanten Einfluß | Zell-"Kolonien" pro 10^5 Knochenmarkzellen, Prozentuale Angabe ([3]; leukocytes of Kontroll-personen, Exp. A, 1 µg DAc-SP5 per 1 ml agar): 99% | Zell-"Kolonien" pro 10^5 Knochenmarkzellen, Prozentuale Angabe ([3]; leukocytes of Kontroll-personen, Exp. A, 2 µg DAc-SP5 per 1 ml agar): 98% | Zell-"Kolonien" pro 10^5 Knochenmarkzellen, Prozentuale Angabe ([3]; leukocytes of Kontroll-personen, Exp. A, 10 µg DAc-SP5 per 1 ml agar): 114% | Zell-"Kolonien" pro 10^5 Knochenmarkzellen, Prozentuale Angabe ([3]; leukocytes of Kontroll-personen, Exp. A, 20 µg DAc-SP5 per 1 ml agar): 125% | Zell-"Kolonien" pro 10^5 Knochenmarkzellen, Prozentuale Angabe ([3]; leukocytes of Kontroll-personen, Exp. B, 1 µg DAc-SP5 per 1 ml agar): 135% | Zell-"Kolonien" pro 10^5 Knochenmarkzellen, Prozentuale Angabe ([3]; leukocytes of Kontroll-personen, Exp. B, 2 µg DAc-SP5 per 1 ml agar): 136% | Zell-"Kolonien" pro 10^5 Knochenmarkzellen, Prozentuale Angabe ([3]; leukocytes of Kontroll-personen, Exp. B, 10 µg DAc-SP5 per 1 ml agar): 147% | Zell-"Kolonien" pro 10^5 Knochenmarkzellen, Prozentuale Angabe ([3]; leukocytes of Kontroll-personen, Exp. B, 20 µg DAc-SP5 per 1 ml agar): 137% | Zell-"Kolonien" pro 10^5 Knochenmarkzellen, Prozentuale Angabe ([3]; leukocytes of Patienten (Systemischer Lupus Erythe-matodes), Exp. A, 1 µg DAc-SP5 per 1 ml agar): 180% | Zell-"Kolonien" pro 10^5 Knochenmarkzellen, Prozentuale Angabe ([3]; leukocytes of Patienten (Systemischer Lupus Erythe-matodes), Exp. A, 2 µg DAc-SP5 per 1 ml agar): 316% | Zell-"Kolonien" pro 10^5 Knochenmarkzellen, Prozentuale Angabe ([3]; leukocytes of Patienten (Systemischer Lupus Erythe-matodes), Exp. A, 10 µg DAc-SP5 per 1 ml agar): 270% | Zell-"Kolonien" pro 10^5 Knochenmarkzellen, Prozentuale Angabe ([3]; leukocytes of Patienten (Systemischer Lupus Erythe-matodes), Exp. A, 20 µg DAc-SP5 per 1 ml agar): 256% | Zell-"Kolonien" pro 10^5 Knochenmarkzellen, Prozentuale Angabe ([3]; leukocytes of Patienten (Systemischer Lupus Erythe-matodes), Exp. B, 2 µg DAc-SP5 per 1 ml agar): 873% | Zell-"Kolonien" pro 10^5 Knochenmarkzellen, Prozentuale Angabe ([3]; leukocytes of Patienten (Systemischer Lupus Erythe-matodes), Exp. B, 10 µg DAc-SP5 per 1 ml agar): 642% | Zell-"Kolonien" pro 10^5 Knochenmarkzellen, Prozentuale Angabe ([3]; leukocytes of Patienten (Systemischer Lupus Erythe-matodes), Exp. B, 20 µg DAc-SP5 per 1 ml agar): 438% | % phagocytierende Peritonealzellen (männlichen Balb/c-Mäusen; [8]): 47,5±1,7% | Milzmasse (mg) (männlichen Balb/c-Mäusen; [8]): 82,0±5,6 mg | Phagocytoseindex (männlichen Balb/c-Mäusen; [8]): 4,5±0,1 | Plaque-bildende Zellen der Milz pro 10⁶ Zellen (Jerne-Plaquetest) (männlichen Balb/c-Mäusen; [8]): 214,3±5,9 pro 10⁶ Zellen | Thymusmasse (mg) (männlichen Balb/c-Mäusen; [8]): 29,0±2,2 mg | % phagocytierende Peritonealzellen (männlichen Balb/c-Mäusen; [9]): 75,0±2,6% | Milzmasse (mg) (männlichen Balb/c-Mäusen; [9]): 95,0±7,1 mg | Phagocytoseindex (männlichen Balb/c-Mäusen; [9]): 4,9±0,15 | Plaque-bildende Zellen der Milz pro 10⁶ Zellen (Jerne-Plaquetest) (männlichen Balb/c-Mäusen; [9]): 285,0±11,3 pro 10⁶ Zellen | Thymusmasse (mg) (männlichen Balb/c-Mäusen; [9]): 40,0±3,0 mg | CD4⁺/CD8⁺-Verhältnisses [4, 10]: Verbesserung | Gesamtlymphocytenzahl [4, 10]: Anhebung der Gesamtlymphocytenzahl in den Kontrollbereich | Nebenwirkungen ([4]; HIV-infected patients, after 16 weeks of therapy): keine Nebenwirkungen | Tiere mit Pankreatitis (in %, n = 10-15) (Coxsackievirus B4; Infektionsdosis (TCID₅₀) 10³, therapy during infection: 0,5 mg/kg s.c. daily over 5 days from day of infection): 0% | Tiere mit Pankreatitis (in %, n = 10-15) (Coxsackievirus B4; Infektionsdosis (TCID₅₀) 10⁴, therapy before infection: 0,5 mg/kg s.c. 3 x per week during 2 weeks before infection): 80% | Tiere mit Pankreatitis (in %, n = 10-15) (Coxsackievirus B4; Infektionsdosis (TCID₅₀) 10⁴, therapy during infection: 0,5 mg/kg s.c. daily over 5 days from day of infection): 0% | Tiere mit Pankreatitis (in %, n = 10-15) (Coxsackievirus B4; Infektionsdosis (TCID₅₀) 10⁵, therapy before infection: 0,5 mg/kg s.c. 3 x per week during 2 weeks before infection): 100% | Tiere mit Pankreatitis (in %, n = 10-15) (Coxsackievirus B4; Infektionsdosis (TCID₅₀) 10⁵, therapy during infection: 0,5 mg/kg s.c. daily over 5 days from day of infection): 60% | Tiere mit Pankreatitis (in %, n = 10-15) (Coxsackievirus B4; Infektionsdosis (TCID₅₀) 10⁶, therapy before infection: 0,5 mg/kg s.c. 3 x per week during 2 weeks before infection): 100% | Tiere mit Pankreatitis (in %, n = 10-15) (Coxsackievirus B4; Infektionsdosis (TCID₅₀) 10⁶, therapy during infection: 0,5 mg/kg s.c. daily over 5 days from day of infection): 100% | Anzahl der Tiere mit histopathologischem Lungenbefund (%) [5, 11]: 100% | Anzahl der Tiere mit histopathologischem Lungenbefund (%) [5, 12]: 10% | Suppression der Antigen-spezifischen IgM-Antwort nach Cyclophosphamid (NMRI-Mäuse [6]; Cyclophosphamid 7,2 mg/Tier i. p. once, DAc-SP5 0,5 mg/kg s. c. on the 4 following days): teilweise rekonstituiert | Reduktion der Antigen-spezifischen IgM-Antwort durch Dexamethason (NMRI-Mäuse [6]; Dexamethason 0,2 or 0,08 mg/Tier i. p., DAc-SP5 0,5 mg/kg s. c. on the two following days): vollständig rekonstituiert | Anzahl der Tiere mit histopathologischem Lungenbefund (%) [7, 11]: 100% | Anzahl der Tiere mit histopathologischem Lungenbefund (%) [7, 12]: 0%

³H-Splenopentin [³H-SP5]
Radioligand-Dissoziationskonstante (KD, M) (Milzzellen/Ratte): keine verdrängbare Bindung
